Experimental data from ChEMBL document CHEMBL5137134, “Developing the Natural Prenylflavone Artocarpin from Artocarpus hirsutus as a Potential Lead Targeting Pathogenic, Multidrug-Resistant Staphylococcus aureus, Persisters and Biofilms with No Detectable Resistance” (J Nat Prod, 2022).
Values after ≈ are worked out from the molar mass of the structure shown. Active and inactive are the calls of the source. The calls are words filed in the database; no cut-off is given here.

Key:
Staphylococcus aureus [1] = test: Antibacterial activity against methicillin/tetracycline resistant Staphylococcus aureus NRS 100 assessed as reduction in bacterial growth incubated for 16 to 18 hrs by broth microdilution method; type: functional; details: time 16-18 hrs
Staphylococcus aureus [2] = test: Bactericidal activity against Staphylococcus aureus ATCC 29213 assessed as inhibition of bacterial regrowth at 10 time MIC after 24 hrs by time kill assay; type: functional, organism-based
Acinetobacter baumannii = test: Antibacterial activity against Acinetobacter baumannii BAA 1605 assessed as reduction in bacterial growth incubated for 16 to 18 hrs by broth microdilution method; type: functional; details: time 16-18 hrs
Enterococcus [3] = test: Antibacterial activity against vancomycin/methicillin/levoflaxacin/minocycline resistant Enterococcus NR 31903 assessed as reduction in bacterial growth incubated for 16 to 18 hrs by broth microdilution method; type: functional; details: time 16-18 hrs
Staphylococcus aureus [4] = test: Bactericidal activity against Staphylococcus aureus ATCC 29213 assessed as reduction in log10 CFU at 10 time MIC after 1 hr by time kill assay; type: functional
Enterococcus [5] = test: Antibacterial activity against Enterococcus NR 31903 assessed as reduction in bacterial growth incubated for 16 to 18 hrs by broth microdilution method; type: functional; details: time 16-18 hrs
Staphylococcus aureus [6] = test: Antibacterial activity against methicillin/levoflaxacin/meropenem resistant Staphylococcus aureus NRS 193 assessed as reduction in bacterial growth incubated for 16 to 18 hrs by broth microdilution method; type: functional; details: time 16-18 hrs
Staphylococcus aureus [7] = test: Synergistic antibacterial activity against Staphylococcus aureus ATCC 29213 assessed as fractional inhibitory concentration incubated for 24 hrs in presence of linezolid by checkerboard method; type: functional
Staphylococcus aureus [8] = test: Synergistic antibacterial activity against Staphylococcus aureus ATCC 29213 assessed as fractional inhibitory concentration incubated for 24 hrs in presence of minocycline by checkerboard method; type: functional
Staphylococcus aureus [9] = test: Synergistic antibacterial activity against Staphylococcus aureus ATCC 29213 assessed as reduction in bacterial growth incubated for 24 hrs in presence of gentamycin by checkerboard method; type: functional
Staphylococcus aureus [10] = test: Bactericidal activity against Staphylococcus aureus ATCC 29213 assessed as reduction in log10 CFU at 1 time MIC after 1 hr by time kill assay; type: functional
Enterococcus [11] = test: Antibacterial activity against vancomycin/methicillin/levoflaxacin/minocycline resistant Enterococcus NR 31912 assessed as reduction in bacterial growth incubated for 16 to 18 hrs by broth microdilution method; type: functional; details: time 16-18 hrs
Escherichia coli = test: Antibacterial activity against Escherichia coli ATCC 25922 assessed as reduction in bacterial growth incubated for 16 to 18 hrs by broth microdilution method; type: functional; details: time 16-18 hrs
Staphylococcus aureus [12] = test: Antibacterial activity against chloramphenicol resistant Staphylococcus aureus NRS 129 assessed as reduction in bacterial growth incubated for 16 to 18 hrs by broth microdilution method; type: functional; details: time 16-18 hrs
Staphylococcus aureus [13] = test: Synergistic antibacterial activity against Staphylococcus aureus ATCC 29213 assessed as fractional inhibitory concentration incubated for 24 hrs in presence of rifampicin by checkerboard method; type: functional
Staphylococcus aureus [14] = test: Synergistic antibacterial activity against Staphylococcus aureus ATCC 29213 assessed as fractional inhibitory concentration incubated for 24 hrs in presence of daptomycin by checkerboard method; type: functional
Staphylococcus aureus [15] = test: Synergistic antibacterial activity against Staphylococcus aureus ATCC 29213 assessed as reduction in bacterial growth incubated for 24 hrs in presence of levofloxacin by checkerboard method; type: functional
Staphylococcus aureus [16] = test: Synergistic antibacterial activity against Staphylococcus aureus ATCC 29213 assessed as fractional inhibitory concentration incubated for 24 hrs in presence of vancomycin by checkerboard method; type: functional
[17] = Cytotoxicity against African green monkey Vero cells after 72 hrs by MTT assay; type: toxicity, cell-based; details: chlorocebus sabaeus
Staphylococcus aureus [18] = test: Antibacterial activity against methicillin/levoflaxacin/vancomycin/meropenem/gentamycin/spectinomycin/teicoplanin resistant Staphylococcus aureus VRS 4 assessed as reduction in bacterial growth incubated for 16 to 18 hrs by broth microdilution method; type: functional; details: time 16-18 hrs
Staphylococcus aureus [19] = test: Antibacterial activity against Staphylococcus aureus ATCC 29213 infected in Swiss mouse skin infection model assessed as reduction in skin bacterial load at 1 % dose administered twice daily for 4 days; type: functional; details: time 4 day
Staphylococcus aureus [20] = test: Synergistic antibacterial activity against Staphylococcus aureus ATCC 29213 assessed as reduction in bacterial growth incubated for 24 hrs in presence of vancomycin by checkerboard method; type: functional
Staphylococcus aureus [21] = test: Post antibiotic effect against Staphylococcus aureus ATCC 29213 at 1 time MIC incubated for 1 hr followed by replacement with drug free medium and measured every 1 hr (reference value: 0 hr); type: functional
Staphylococcus aureus [22] = test: Bactericidal activity against Staphylococcus aureus ATCC 29213 assessed as visible cell destruction at 2.5 times MIC after 30 mins by scanning electron microscopy analysis; type: functional, organism-based
Staphylococcus aureus [23] = test: Post antibiotic effect against Staphylococcus aureus ATCC 29213 assessed as time required for 1 log10 increase in CFU at 1 time MIC incubated for 1 hr followed by replacement with drug free medium and measured every 1 hr (reference value: 2 hrs); type: functional
Staphylococcus aureus [24] = test: Synergistic antibacterial activity against Staphylococcus aureus ATCC 29213 assessed as reduction in bacterial growth incubated for 24 hrs in presence of daptomycin by checkerboard method; type: functional
Staphylococcus aureus [25] = test: Bactericidal activity against Staphylococcus aureus ATCC 29213 assessed as decrease in intracellular ATP level after 1 hr by ATP bioluminescence assay; type: functional, organism-based; details: DDE = dose-dependent effect
[26] = Selectivity index, ratio of CC50 for African green monkey Vero cells to MIC for Staphylococcus aureus ATCC 29213; type: toxicity; details: read-out: Selectivity Index
Staphylococcus aureus [27] = test: Synergistic antibacterial activity against Staphylococcus aureus ATCC 29213 assessed as fractional inhibitory concentration incubated for 24 hrs in presence of meropenem by checkerboard method; type: functional
Staphylococcus aureus [28] = test: Antibiofilm activity against Staphylococcus aureus ATCC 29213 assessed as reduction in preformed bacterial biofilm mass at 1 time MIC incubated for 24 hrs by crystal violet staining based microtiter plate reader assay; type: functional; parameters: scale not given: the % may be the effect or the level left
Staphylococcus aureus [29] = test: Post antibiotic effect against Staphylococcus aureus ATCC 29213 assessed as time required for 1 log10 increase in CFU at 10 times MIC incubated for 1 hr followed by replacement with drug free medium and measured every 1 hr (reference value: 2 hrs); type: functional
Staphylococcus aureus [30] = test: Synergistic antibacterial activity against Staphylococcus aureus ATCC 29213 at 1 time MIC after 24 hrs in presence of linezolid by time kill assay; type: functional
Staphylococcus aureus [31] = test: Synergistic antibacterial activity against Staphylococcus aureus ATCC 29213 assessed as reduction in bacterial growth incubated for 24 hrs in presence of minocycline by checkerboard method; type: functional
Staphylococcus aureus [32] = test: Antibacterial activity against methicillin/meropenem/levoflaxacin resistant Staphylococcus aureus NRS 198 assessed as reduction in bacterial growth incubated for 16 to 18 hrs by broth microdilution method; type: functional; details: time 16-18 hrs
Staphylococcus aureus [33] = test: Antibacterial activity against methicillin/meropenem resistant Staphylococcus aureus NRS 194 assessed as reduction in bacterial growth incubated for 16 to 18 hrs by broth microdilution method; type: functional; details: time 16-18 hrs
Staphylococcus aureus [34] = test: Synergistic antibacterial activity against Staphylococcus aureus ATCC 29213 assessed as reduction in bacterial growth incubated for 24 hrs in presence of ceftazidime by checkerboard method; type: functional
Pseudomonas aeruginosa = test: Antibacterial activity against Pseudomonas aeruginosa ATCC 27853 assessed as reduction in bacterial growth incubated for 16 to 18 hrs by broth microdilution method; type: functional; details: time 16-18 hrs
Staphylococcus aureus [35] = test: Synergistic antibacterial activity against Staphylococcus aureus ATCC 29213 assessed as fractional inhibitory concentration incubated for 24 hrs in presence of levofloxacin by checkerboard method; type: functional

Question: Which MIC (Staphylococcus aureus [1]) does the source give for `COc1cc2oc(-c3ccc(O)cc3O)c(CC=C(C)C)c(=O)c2c(O)c1/C=C/C(C)C` [ARTOCARPIN] here?
Answer: 4 µg/mL (≈ 9.16 µM)

Question: What about the Activity (Staphylococcus aureus [2]) of the same molecule?
Answer: Active

Question: What about the MIC (Acinetobacter baumannii) of the same molecule?
Answer: > 128 µg/mL

Question: What about the MIC (Enterococcus [3]) of the same molecule?
Answer: 2 µg/mL (≈ 4.58 µM)

Question: And the Activity (Staphylococcus aureus [4])?
Answer: 4.8 log10CFU/ml

Question: And the MIC (Enterococcus [5])?
Answer: 2 µg/mL (≈ 4.58 µM)

Question: What about the MIC (Staphylococcus aureus [6]) of the same molecule?
Answer: 4 µg/mL (≈ 9.16 µM)

Question: And the FIC (Staphylococcus aureus [7])?
Answer: 0.25

Question: And the FIC (Staphylococcus aureus [8])?
Answer: 0.25

Question: And the MIC (Staphylococcus aureus [9])?
Answer: 0.06 µg/mL

Question: What about the Activity (Staphylococcus aureus [10]) of the same molecule?
Answer: 3.6 log10CFU/ml

Question: What about the MIC (Enterococcus [11]) of the same molecule?
Answer: 2 µg/mL (≈ 4.58 µM)

Question: And the MIC (Escherichia coli)?
Answer: > 128 µg/mL

Question: And the MIC (Staphylococcus aureus [12])?
Answer: 4 µg/mL (≈ 9.16 µM)

Question: What about the FIC (Staphylococcus aureus [13]) of the same molecule?
Answer: 0.5

Question: And the FIC (Staphylococcus aureus [14])?
Answer: 0.25

Question: What about the MIC (Staphylococcus aureus [15]) of the same molecule?
Answer: 2 µg/mL

Question: What about the FIC (Staphylococcus aureus [16]) of the same molecule?
Answer: 0.5

Question: And the CC50 at 72 h [17]?
Answer: 80 µg/mL (≈ 183 µM)

Question: What about the MIC (Staphylococcus aureus [18]) of the same molecule?
Answer: 4 µg/mL (≈ 9.16 µM)

Question: And the Activity (Staphylococcus aureus [19])?
Answer: 1 log10CFU/g

Question: What about the MIC (Staphylococcus aureus [20]) of the same molecule?
Answer: 2 µg/mL

Question: And the PAE (Staphylococcus aureus [21])?
Answer: 3 h

Question: And the Activity (Staphylococcus aureus [22])?
Answer: Active

Question: And the Time (Staphylococcus aureus [23])?
Answer: 5 h

Question: What about the MIC (Staphylococcus aureus [24]) of the same molecule?
Answer: 1 µg/mL

Question: What about the Activity (Staphylococcus aureus [25]) of the same molecule?
Answer: Dde

Question: And the selectivity ratio [26]?
Answer: 40

Question: What about the FIC (Staphylococcus aureus [27]) of the same molecule?
Answer: 0.5

Question: What about the Activity (Staphylococcus aureus [28]) of the same molecule?
Answer: 34%

Question: And the Time (Staphylococcus aureus [29])?
Answer: 24 h

Question: And the Activity (Staphylococcus aureus [30])?
Answer: 4 log10CFU/ml

Question: And the MIC (Staphylococcus aureus [31])?
Answer: 1 µg/mL

Question: And the MIC (Staphylococcus aureus [32])?
Answer: 2 µg/mL (≈ 4.58 µM)

Question: And the MIC (Staphylococcus aureus [33])?
Answer: 4 µg/mL (≈ 9.16 µM)

Question: And the MIC (Staphylococcus aureus [34])?
Answer: 2 µg/mL

Question: What about the MIC (Pseudomonas aeruginosa) of the same molecule?
Answer: > 128 µg/mL

Question: And the FIC (Staphylococcus aureus [35])?
Answer: 0.5
